From ChEMBL document CHEMBL5214963, “Development of a penetratin-conjugated stapled peptide that inhibits Wnt/β-catenin signaling” (Bioorg Med Chem, 2022) come the findings set out here.

In series [1] the test system is A549. The series is described as follows: Cytotoxicity against human A549 cells assessed as cell growth inhibition at 20 uM incubated for 5 days by CellTiter-Glo reagent based microplate reader analysis. Type of series: functional. To be noted: time 5.0 day.
For series [2], the system named is HEK293. As to the kind of experiment: Inhibition of Wnt/beta-catenin transactivation signalling in Wnt3a stimulated human HEK293 cells harbouring TCF/LEF luciferase reporter gene assessed as inhibition TCF-beta-catenin complex formation by measuring luminescence level at 20 uM preincubated for 15 hrs followed by recombinant mouse Wnt-3a addition and measured after 5 hrs by luminescence based microplate reader analysis. It counts as cell-based. The conditions noted are these: time 20.0 hrs. (Reporter assays use an easily measured gene product as a stand-in for the process of interest.)

Series [3] has as its system DLD-1. As to the kind of experiment: Cytotoxicity against human DLD-1 cells assessed as cell growth inhibition at 20 uM incubated for 5 days by CellTiter-Glo reagent based microplate reader analysis. Type of series: functional. The conditions noted are these: time 5.0 day. In general terms: In ATP-based viability assays light output follows the ATP content of the culture.

Series [4] is described as follows: Stability of the compound in proteinase K (unknown origin) assessed as remaining parent compound at 100 uM measured after 480 mins by HPLC analysis. The conditions noted are these: read-out: Stability. Type of series: ADME.
Series [5] concerns DLD-1. As to the kind of experiment: Cytotoxicity against human DLD-1 cells assessed as reduction in cell growth at 20 uM incubated for 24 hrs by CellTiter-Glo reagent based microplate reader analysis. It counts as functional.
Series [6] deals with HEK293. As to the kind of experiment: Inhibition of Wnt/beta-catenin transactivation signalling in Wnt3a stimulated human HEK293 cells harbouring TCF/LEF luciferase reporter gene assessed as inhibition TCF-beta-catenin complex formation by measuring luminescence level at 0.1 to 20 uM preincubated for 15 hrs followed by recombinant mouse Wnt-3a addition and measured after 5 hrs by luminescence based microplate reader analysis. Type of series: cell-based. To be noted: dose 0.1-20 µM, time 20.0 hrs, DDE = dose-dependent effect.

Series [7] has as its system A549. As to the kind of experiment: Cytotoxicity against human A549 cells assessed as cell growth inhibition at 20 uM incubated for 24 hrs by CellTiter-Glo reagent based microplate reader analysis. Type of series: functional.
In series [8] the test system is HEK293. The series is described as follows: Inhibition of Wnt/beta-catenin transactivation signalling in Wnt3a stimulated human HEK293 cells harbouring TCF/LEF luciferase reporter gene assessed as inhibition TCF-beta-catenin complex formation by measuring luminescence level at 50 uM preincubated for 15 hrs followed by recombinant mouse Wnt-3a addition and measured after 5 hrs by luminescence based microplate reader analysis. Type of series: cell-based. The conditions noted are these: time 20.0 hrs.

The source made the active and inactive calls. The calls are words filed in the database; no cut-off is given here. *1 amine or outer side, *2 acyl side, *3 side chain or, on linkers, in order; H or OH if unused. Where a SMILES comes first, the peptide text is derived from it. Bridges are numbered along the chain shown (N, C = ends). [ ]: non-standard residue; d: D form. Nle(6-ylidene) = O=C([C@H](CCCC=[*:3])N[*:1])[*:2]; Nle = CCCC[C@H](N)C(=O)O; βAla = NCCC(=O)O

Turning to `CC[C@H](C)[C@@H]1NC(=O)[C@@H](NC(=O)[C@H](CCCNC(=N)N)NC(=O)[C@@H]2CCCN2C(=O)[C@H](Cc2c[nH]c3ccccc23)NC(=O)[C@H](CCCNC(=N)N)NC(=O)[C@H](CCCNC(=N)N)NC(C)=O)CCC/C=C\CCC[C@@H](C(=O)N[C@@H](Cc2cnc[nH]2)C(=O)N[C@H](C(=O)N[C@@H](CCCNC(=N)N)C(=O)N[C@@H](CCCNC(=N)N)C(=O)N[C@H](C(=O)N[C@@H](Cc2c[nH]c3ccccc23)C(=O)N[C@@H](CCCNC(=N)N)C(=O)O)C(C)C)C(C)C)NC(=O)[C@H](CC(=O)O)NC(=O)[C@H](CC(C)C)NC1=O` (Ac-RRWPR[Nle(6-ylidene)]ILD[Nle(6-ylidene)]HVRRVWR-OH; staple (Z) 6-10), the result in series [1] and in series [3] was Active. Also, in series [2], the inhibition result was “Active”.
On to `CCCC[C@H](NC(=O)[C@@H]1CCC/C=C\CCC[C@H](NC(=O)[C@H](C)NC(=O)[C@H](C)NC(=O)CCN)C(=O)N[C@@H](CC(C)C)C(=O)N[C@@H](CC(=O)O)C(=O)N[C@@H](Cc2ccc(O)cc2)C(=O)N1)C(=O)N[C@@H](CS)C(=O)N[C@@H](CC(N)=O)C(=O)N[C@@H](Cc1ccc(O)cc1)C(=O)O` (H-[βAla]AA[Nle(6-ylidene)]LDY[Nle(6-ylidene)][Nle]CNY-OH; staple (Z) 4-8), for which the remaining at 8 h, 100 µM in series [4] was determined as 65%.
As to `CCCC[C@H](NC(=O)[C@@H]1CCC/C=C\CCC[C@H](NC(=O)[C@H](C)NC(=O)[C@H](C)NC(=O)CCNC(=O)[C@H](CCCCN)NC(=O)[C@H](CCCCN)NC(=O)[C@H](Cc2c[nH]c3ccccc23)NC(=O)[C@H](CCCCN)NC(=O)[C@H](CCSC)NC(=O)[C@H](CCCNC(=N)N)NC(=O)[C@H](CCCNC(=N)N)NC(=O)[C@H](CC(N)=O)NC(=O)[C@H](CCC(N)=O)NC(=O)[C@H](Cc2ccccc2)NC(=O)[C@H](Cc2c[nH]c3ccccc23)NC(=O)[C@@H](NC(=O)[C@H](CCCCN)NC(=O)[C@@H](NC(=O)[C@H](CCC(N)=O)NC(=O)[C@@H](N)CCCNC(=N)N)[C@@H](C)CC)[C@@H](C)CC)C(=O)N[C@@H](CC(C)C)C(=O)N[C@@H](CC(=O)O)C(=O)N[C@@H](Cc2ccc(O)cc2)C(=O)N1)C(=O)N[C@@H](CS)C(=O)N[C@@H](CC(N)=O)C(=O)N[C@@H](Cc1ccc(O)cc1)C(=O)O`, the result in series [1], in series [5], in series [7] and in series [3] was Active. The inhibition entry in series [6] was “Dde”.
With `CC(C)C[C@H](NC(=O)[C@H](C)NC(=O)[C@H](C)NC(=O)CCN)C(=O)N[C@@H](CC(C)C)C(=O)N[C@@H](CC(=O)O)C(=O)N[C@@H](Cc1ccc(O)cc1)C(=O)N[C@H](C(=O)N[C@@H](CS)C(=O)N[C@@H](CC(N)=O)C(=O)N[C@@H](Cc1ccc(O)cc1)C(=O)O)[C@@H](C)O` (H-[βAla]AALLDYTCNY-OH), in series [4], the remaining at 8 h, 100 µM stood at 0.1%.
Regarding `CCCC[C@H](NC(=O)[C@@H]1CCC/C=C\CCC[C@H](NC[C@H](C)NC(=O)[C@H](C)NC(=O)CCNC(=O)[C@H](CCC(N)=O)NC(=O)[C@@H]2CCCN2C(=O)[C@@H]2CCCN2C(=O)[C@H](CCCNC(=N)N)NC(=O)[C@H](CCCNC(=N)N)NC(=O)[C@H](CCCNC(=N)N)NC(=O)[C@H](CCC(N)=O)NC(=O)[C@H](CCCNC(=N)N)NC(=O)[C@H](CCCNC(=N)N)NC(=O)[C@H](CCCCN)NC(=O)[C@H](CCCCN)NC(=O)[C@H](CCCNC(=N)N)NC(=O)CN)C(=O)N[C@@H](CC(C)C)C(=O)N[C@@H](CC(=O)O)C(=O)N[C@@H](Cc2ccc(O)cc2)C(=O)N1)C(=O)N[C@@H](CS)C(=O)N[C@@H](CC(N)=O)C(=O)N[C@@H](Cc1ccc(O)cc1)C(=O)O`, the result in series [5] and in series [7] was Active.
As to `CCCC[C@H](NC(=O)[C@@H]1CCC/C=C\CCC[C@H](NC(=O)[C@H](C)NC(=O)[C@H](C)NC(=O)CCNC(=O)[C@H](CCCNC(=N)N)NC(=O)[C@H](CCCNC(=N)N)NC(=O)[C@H](CCCNC(=N)N)NC(=O)[C@H](CCCNC(=N)N)NC(=O)[C@H](CCCNC(=N)N)NC(=O)[C@H](CCCNC(=N)N)NC(=O)[C@H](CCCNC(=N)N)NC(=O)[C@@H](N)CCCNC(=N)N)C(=O)N[C@@H](CC(C)C)C(=O)N[C@@H](CC(=O)O)C(=O)N[C@@H](Cc2ccc(O)cc2)C(=O)N1)C(=O)N[C@@H](CS)C(=O)N[C@@H](CC(N)=O)C(=O)N[C@@H](Cc1ccc(O)cc1)C(=O)O`, the outcome in series [5] and in series [7] was Active.
Turning to `O=C(Nc1cccc2cccnc12)c1ccc(N2C(=O)[C@@H]3[C@H](C2=O)[C@@H]2C=C[C@H]3C2)cc1`, the inhibition result in series [8] was “Active”.
